System: 233499-124-R-J3-PDC spheroids with HUVEC/MSC, viability
Assay: Anticancer human tumor 233499-124-R-J3-PDC patient-derived colon adenocarcinoma cell line growth inhibition [PI3K]
Conditions: for IC50: curve of first compound; for viability, T/C: stronger effect = lower value
Description: Combinatorial screen of targeted agents with the PI3K inhibitors inavolisib, alpelisib, duvelisib, and copanlisib in multi-cell type tumor spheroids
A high-throughput screen of multi-cell type tumor spheroids was designed to identify active combinations of targeted small molecules and PI3K pathway inhibitors. Complex spheroids include a stromal component modeled by human endothelial cells (HUVEC) and fibroblasts modeled by human mesenchymal stem cells (MSCs). The concentration ranges selected for each drug and investigational agent were based upon clinically achievable concentrations if the clinical Cmax of the agent was known.
Compounds. The drugs and investigational agents: inavolisib (NSC800729), alpelisib (NSC765974), duvelisib (NSC772469), copanlisib (NSC816437), ipatasertib (NSC767898), afuresertib (NSC778305), talazoparib (NSC767125), sapanisertib (NSC764658), selumetinib (NSC741078), tovorafenib (DAY101, NSC766906), vemurafenib (NSC761431), ravoxertinib (NSC781343), sotorasib (NSC818433), MRTX1133 (NSC 836407), abemaciclib (NSC 768073), palbociclib (NSC758247), venetoclax (NSC 766270), SY5609 (NSC837396), enzalutamide (NSC755605), and darolutamide (NSC825331), were obtained from the National Cancer Institute (NCI) Developmental Therapeutics Program Chemical Repository. The FDA-approved anticancer drug set is available from the NCI Developmental Therapeutics Program. […] The stock solutions were prepared in dimethyl sulfoxide (DMSO, Sigma-Aldrich, St. Louis, MO, cat. D2650) at 800-fold the tested concentration and stored at -70 degrees C prior to their use. All drugs and investigational agents were tested over a range starting from a high concentration at or near the clinical Cmax and decreasing in half-log increments. If the clinical Cmax for an agent had not been determined, the highest concentration tested was 10 microM.
Cell Culture. All cells were maintained in an incubator at 37 degrees C and 5% CO2 with 95% humidity. The PDC lines were cultured according to standard operating procedures established by the NCI PDMR (https://pdmr.cancer.gov/sops/default.htm). All PDCs were thawed and cultured in Matrigel-coated flasks prepared with a working solution of 1X Ham's F-12 nutrient mix, without supplementation (Invitrogen, Waltham, MA, cat. 11765054), 100 U/mL penicillin-streptomycin (Invitrogen, cat. 15140122), and 2.5% Matrigel (Corning Inc., Corning, NY, cat. 354248) for the first three passages. The 354836-022-R-J1-PDC, 475296-252-R-J1-PDC, and 997726-040-R-J2-PDC lines were cultured in 6A media, which includes advanced DMEM/F-12 (Thermo Fisher Scientific, cat. 12634028), 10 mM HEPES (Thermo Fisher Scientific, cat. 15630080), 1X GlutaMAX supplement (Thermo Fisher Scientific, cat. 35050061), 0.1 mg/mL primocin (InvivoGen, San Diego, CA, cat. ant-pm-2), 10% defined fetal bovine serum, heat inactivated (HyClone Laboratories Inc., Logan, UT, cat. SH30070.03HI), 50% L-WRN conditioned media (ATCC, cat. CRL-3276), 1.25 mM N-Acetyl-L-cysteine (Sigma-Aldrich, cat. A9165), 10 mM nicotinamide (Sigma-Aldrich, cat. N0636), 1X B-27 supplement (Thermo Fisher Scientific, cat. 17504044), 1X N-2 supplement (Thermo Fisher Scientific, cat. 17502048), and 10 microM Y-27632 dihydrochloride (Tocris Bioscience, Bristol, United Kingdom, cat. 1254). The 624824-186-R-J2-PDC line was cultured in 6C/Colon 1B media, which includes all 6A media components plus 50 ng/mL human EGF recombinant protein (Thermo Fisher Scientific, cat. PHG0311). […]
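Also: spheroids exposed to agents for seven days before readout.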
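For viability, T/C in this document: percent viability relative to DMSO vehicle control taken as 100%.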

## Cn1cnc2c(F)c(Nc3ccc(Br)cc3Cl)c(C(=O)NOCCO)cc21 + CC(Nc1ncnc2nc[nH]c12)c1cc2cccc(Cl)c2c(=O)n1-c1ccccc1
Second compound 0.0316 µM
  IC50: 600 nM
Second compound 0.1 µM
  IC50: 603 nM
Second compound 0.316 µM
  IC50: 511 nM
Second compound 1 µM
  IC50: 281 nM
Second compound 3.16 µM
  IC50: 275 nM
Second compound 10 µM
  IC50: 455 nM
Second compound 0.0316 µM, first compound 0.00949 µM
  viability, T/C: 68.9%
Second compound 0.0316 µM, first compound 0.03 µM
  viability, T/C: 69.2%
Second compound 0.0316 µM, first compound 0.0949 µM
  viability, T/C: 66%
Second compound 0.0316 µM, first compound 0.3 µM
  viability, T/C: 70.9%
Second compound 0.0316 µM, first compound 0.949 µM
  viability, T/C: 37.6%
Second compound 0.0316 µM, first compound 3 µM
  viability, T/C: 28.6%
Second compound 0.1 µM, first compound 0.00949 µM
  viability, T/C: 83.8%
Second compound 0.1 µM, first compound 0.03 µM
  viability, T/C: 73.6%
Second compound 0.1 µM, first compound 0.0949 µM
  viability, T/C: 64.9%
Second compound 0.1 µM, first compound 0.3 µM
  viability, T/C: 67.6%
Second compound 0.1 µM, first compound 0.949 µM
  viability, T/C: 40.3%
Second compound 0.1 µM, first compound 3 µM
  viability, T/C: 19.5%
Second compound 0.316 µM, first compound 0.00949 µM
  viability, T/C: 90%
Second compound 0.316 µM, first compound 0.03 µM
  viability, T/C: 76.5%
Second compound 0.316 µM, first compound 0.0949 µM
  viability, T/C: 61.1%
Second compound 0.316 µM, first compound 0.3 µM
  viability, T/C: 64%
Second compound 0.316 µM, first compound 0.949 µM
  viability, T/C: 41%
Second compound 0.316 µM, first compound 3 µM
  viability, T/C: 31%
Second compound 1 µM, first compound 0.00949 µM
  viability, T/C: 96.6%
Second compound 1 µM, first compound 0.03 µM
  viability, T/C: 73.4%
Second compound 1 µM, first compound 0.0949 µM
  viability, T/C: 53%
Second compound 1 µM, first compound 0.3 µM
  viability, T/C: 51.5%
Second compound 1 µM, first compound 0.949 µM
  viability, T/C: 51.7%
Second compound 1 µM, first compound 3 µM
  viability, T/C: 22.4%
Second compound 3.16 µM, first compound 0.00949 µM
  viability, T/C: 76.8%
Second compound 3.16 µM, first compound 0.03 µM
  viability, T/C: 76.2%
Second compound 3.16 µM, first compound 0.0949 µM
  viability, T/C: 64.7%
Second compound 3.16 µM, first compound 0.3 µM
  viability, T/C: 48.9%
Second compound 3.16 µM, first compound 0.949 µM
  viability, T/C: 40%
Second compound 3.16 µM, first compound 3 µM
  viability, T/C: 37.1%
Second compound 10 µM, first compound 0.00949 µM
  viability, T/C: 74.6%
Second compound 10 µM, first compound 0.03 µM
  viability, T/C: 52.1%
Second compound 10 µM, first compound 0.0949 µM
  viability, T/C: 72.8%
Second compound 10 µM, first compound 0.3 µM
  viability, T/C: 50%
Second compound 10 µM, first compound 0.949 µM
  viability, T/C: 43.4%
Second compound 10 µM, first compound 3 µM
  viability, T/C: 25.3%

## CC1(C)CCC(CN2CCN(c3ccc(C(=O)NS(=O)(=O)c4ccc(NCC5CCOCC5)c([N+](=O)[O-])c4)c(Oc4cnc5[nH]ccc5c4)c3)CC2)=C(c2ccc(Cl)cc2)C1 + Cc1nc(NC(=O)N2CCCC2C(N)=O)sc1-c1ccnc(C(C)(C)C(F)(F)F)c1
Second compound 0.0316 µM
  IC50: 6180 nM
Second compound 0.1 µM
  IC50: 5470 nM
Second compound 0.316 µM
  IC50: 5380 nM
Second compound 1 µM
  IC50: 4330 nM
Second compound 3.16 µM
  IC50: 2610 nM
Second compound 10 µM
  IC50: < 31.6 nM
Second compound 0.0316 µM, first compound 0.0316 µM
  viability, T/C: 110%
Second compound 0.0316 µM, first compound 0.1 µM
  viability, T/C: 104%
Second compound 0.0316 µM, first compound 0.316 µM
  viability, T/C: 107%
Second compound 0.0316 µM, first compound 1 µM
  viability, T/C: 115%
Second compound 0.0316 µM, first compound 3.16 µM
  viability, T/C: 106%
Second compound 0.0316 µM, first compound 10 µM
  viability, T/C: 10.1%
Second compound 0.1 µM, first compound 0.0316 µM
  viability, T/C: 112%
Second compound 0.1 µM, first compound 0.1 µM
  viability, T/C: 98.1%
Second compound 0.1 µM, first compound 0.316 µM
  viability, T/C: 66.5%
Second compound 0.1 µM, first compound 1 µM
  viability, T/C: 109%
Second compound 0.1 µM, first compound 3.16 µM
  viability, T/C: 93%
Second compound 0.1 µM, first compound 10 µM
  viability, T/C: 2.57%
Second compound 0.316 µM, first compound 0.0316 µM
  viability, T/C: 99.9%
Second compound 0.316 µM, first compound 0.1 µM
  viability, T/C: 89.3%
Second compound 0.316 µM, first compound 0.316 µM
  viability, T/C: 76%
Second compound 0.316 µM, first compound 1 µM
  viability, T/C: 88.3%
Second compound 0.316 µM, first compound 3.16 µM
  viability, T/C: 88.9%
Second compound 0.316 µM, first compound 10 µM
  viability, T/C: 5.24%
Second compound 1 µM, first compound 0.0316 µM
  viability, T/C: 97.6%
Second compound 1 µM, first compound 0.1 µM
  viability, T/C: 73.7%
Second compound 1 µM, first compound 0.316 µM
  viability, T/C: 80.8%
Second compound 1 µM, first compound 1 µM
  viability, T/C: 82.8%
Second compound 1 µM, first compound 3.16 µM
  viability, T/C: 67%
Second compound 1 µM, first compound 10 µM
  viability, T/C: 4.35%
Second compound 3.16 µM, first compound 0.0316 µM
  viability, T/C: 61.9%
Second compound 3.16 µM, first compound 0.1 µM
  viability, T/C: 51.9%
Second compound 3.16 µM, first compound 0.316 µM
  viability, T/C: 61.8%
Second compound 3.16 µM, first compound 1 µM
  viability, T/C: 62.4%
Second compound 3.16 µM, first compound 3.16 µM
  viability, T/C: 48.1%
Second compound 3.16 µM, first compound 10 µM
  viability, T/C: 1.21%
Second compound 10 µM, first compound 0.0316 µM
  viability, T/C: 32.1%
Second compound 10 µM, first compound 0.1 µM
  viability, T/C: 26.4%
Second compound 10 µM, first compound 0.316 µM
  viability, T/C: 22.6%
Second compound 10 µM, first compound 1 µM
  viability, T/C: 31.1%
Second compound 10 µM, first compound 3.16 µM
  viability, T/C: 9.66%
Second compound 10 µM, first compound 10 µM
  viability, T/C: 2.29%

— PubChem BioAssay AID1963984 (Molecular Pharmacology Branch, DTP, NCI, 2024)
